Reference: ChEMBL document CHEMBL1944634, “Design, synthesis and biological evaluation of 6-substituted aminocarbonyl benzimidazole derivatives as nonpeptidic angiotensin II AT1 receptor antagonists” (Eur J Med Chem, 2012)
Numbering of substitutions follows the chain as printed. ≈ marks a conversion by molar mass, not a printed value.

Assays:
[1] = Toxicity against Photobacterium phosphoreum T3 mutant assessed as inhibition of luminescence after 15 mins by microtox test; type: organism-based; details: Photobacterium phosphoreum T3 mutant (luminescent bacteria), read-out: LC50
[2] = biological target: T1, Type-1 angiotensin II receptor (Homo sapiens, UniProt P30556); assay: Displacement of [125I]Sar1 Ile8-Ang 2 from angiotensin 2 AT1 receptor after 180 mins by gamma counting
T1 sequence (P30556 whole entry): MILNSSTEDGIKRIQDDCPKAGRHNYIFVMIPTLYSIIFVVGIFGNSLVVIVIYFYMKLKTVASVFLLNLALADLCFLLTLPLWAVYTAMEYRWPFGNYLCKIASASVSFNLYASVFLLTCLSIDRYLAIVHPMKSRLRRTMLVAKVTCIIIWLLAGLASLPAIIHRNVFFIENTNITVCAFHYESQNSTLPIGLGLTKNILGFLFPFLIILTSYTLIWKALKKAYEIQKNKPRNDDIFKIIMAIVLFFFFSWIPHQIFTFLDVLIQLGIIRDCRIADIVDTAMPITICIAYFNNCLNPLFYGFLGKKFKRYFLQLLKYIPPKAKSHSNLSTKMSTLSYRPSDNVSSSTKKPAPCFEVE

[3] = biological target: T2, Type-2 angiotensin II receptor (Homo sapiens, UniProt P50052); assay: Displacement of [125I]Sar1 Ile8-Ang 2 from angiotensin 2 AT2 receptor after 180 mins by gamma counting
T2 sequence (P50052 whole entry): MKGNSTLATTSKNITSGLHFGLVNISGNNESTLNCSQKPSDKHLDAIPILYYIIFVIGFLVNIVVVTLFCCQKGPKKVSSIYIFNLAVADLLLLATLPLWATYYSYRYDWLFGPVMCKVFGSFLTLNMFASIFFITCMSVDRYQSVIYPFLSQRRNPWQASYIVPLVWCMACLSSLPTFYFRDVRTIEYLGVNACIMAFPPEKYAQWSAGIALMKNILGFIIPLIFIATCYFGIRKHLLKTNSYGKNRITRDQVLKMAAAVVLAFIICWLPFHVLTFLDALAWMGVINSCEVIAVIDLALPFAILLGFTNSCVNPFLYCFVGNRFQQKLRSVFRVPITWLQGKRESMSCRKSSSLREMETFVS

[4] = biological target: T3, Type-1 angiotensin II receptor (Oryctolagus cuniculus, UniProt P34976); assay: Antagonist activity at angiotensin 2 AT1 receptor in Japanese White rabbits thoracic aorta assessed as inhibition of angiotensin II-induced contraction after 60 mins; details: read-out: pA2 (converted)
T3 sequence (P34976 whole entry): T1 sequence (P30556 whole entry) with I2M, V49A, I254V, I270V, R272H, R311K, T349S, A353V

Rattus norvegicus = assay: Antihypertensive activity in spontaneously hypertensive rat assessed as decrease in blood pressure at 10 mg/kg, po by tail plethysmography; type: functional
[5] = biological target: T4, Type-1 angiotensin II receptor (Homo sapiens) (UniProt P30556); assay: Ratio of losartan IC50 to compound IC50 for angiotensin 2 AT1 receptor
T4 sequence (whole entry): T1 sequence (P30556 whole entry)

Structure (SMILES) | EC50 (luminescence inhibition) at 0.25 h [1] [µg/mL] | IC50 [2] [nM] | IC50 [3] [nM] | Kb [4] [nM] | Activity (Rattus norvegicus) [mmHg] | Ratio IC50 [5]
CCCc1nc2c(C)cc(C(=O)NCc3cccc(OC)c3)cc2n1Cc1ccc(-c2ccccc2C(=O)O)cc1 | > 100 | 326 | > 10000 |  |  | 
CCCc1nc2c(C)cc(C(=O)NCc3ccccc3)cc2n1Cc1ccc(-c2ccccc2C(=O)O)cc1 | 78 (≈ 151 µM) | 52.5 |  |  |  | 
CCCc1nc2c(C)cc(C(=O)NCc3ccc(OC)cc3)cc2n1Cc1ccc(-c2ccccc2C(=O)O)cc1 | > 100 | 4.3 | 3600 | 4.79 |  | 
CCCc1nc2c(C)cc(C(=O)NCCc3ccc(OC)c(OC)c3)cc2n1Cc1ccc(-c2ccccc2C(=O)O)cc1 | > 100 | 57.6 | 1200 |  |  | 
CCCc1nc2c(C)cc(C(=O)NCc3ccc(OC)c(OC)c3)cc2n1Cc1ccc(-c2ccccc2C(=O)O)cc1 | > 100 | 30.6 | > 10000 |  |  | 
CCCc1nc2c(C)cc(C(=O)NCCc3ccccc3F)cc2n1Cc1ccc(-c2ccccc2C(=O)O)cc1 | 65 (≈ 118 µM) | 106 |  |  |  | 
CCCc1nc2c(C)cc(C(=O)NCCc3ccc(OC)cc3)cc2n1Cc1ccc(-c2ccccc2C(=O)O)cc1 | > 100 | 214 | 1500 |  |  | 
CCCc1nc2c(C)cc(C(=O)NCCc3ccc(F)cc3)cc2n1Cc1ccc(-c2ccccc2C(=O)O)cc1 | 89 (≈ 162 µM) | 198 | 1300 |  |  | 
CCCc1nc2c(C)cc(C(=O)NCCc3cccc(OC)c3)cc2n1Cc1ccc(-c2ccccc2C(=O)O)cc1 | 72 (≈ 128 µM) | 30.8 | > 10000 |  |  | 
CCCc1nc2c(C)cc(C(=O)NCc3ccccc3OC)cc2n1Cc1ccc(-c2ccccc2C(=O)O)cc1 | > 100 | 2.4 | 1100 | 6.92 |  | 
CCCc1nc2c(C)cc(C(=O)NCCc3cc(OC)ccc3OC)cc2n1Cc1ccc(-c2ccccc2C(=O)O)cc1 | > 100 | 1.3 | 1400 | 3.16 | >30 | 12
